Data set [1] can be described thus: Therapeutic index, ratio of IC50 for mock-infected human H9 cells to EC50 for HIV1 3B. The note with it: for Activity: h9; for selectivity ratio: read-out: TI. Format: cell-based.
The next data set has as its system H9. In words: Cytotoxicity against mock-infected human H9 cells after 4 days. Conditions: h9, 96 h; call rule not given here. It is filed as cell-based.

As for `C/C=C(/C)C(=O)O[C@H]1c2cc3c(c(OC)c2-c2c(cc4c(c2OC)OCO4)C[C@H](C)[C@@H]1C)OCO3` [ANGELOYLGOMISIN R], the figures for the Activity entry (in data set [1]; with H9) were “Active” and “Not Active”, respectively.
With `COc1c2c(cc3c1-c1c(cc4c(c1OC)OCO4)[C@H](OC(=O)c1ccccc1)[C@@H](C)[C@@H](C)C3)OCO2` [INTERIOTHERIN A], in data set [1], the selectivity ratio came to 13.2.
As for `C/C=C(/C)C(=O)O[C@H]1c2cc3c(c(OC)c2-c2c(cc4c(c2OC)OCO4)C[C@H](C)[C@]1(C)O)OCO3` [INTERIOTHERIN B], the Activity entry is “Active” in data set [1] and “Not Active” with H9.
For the compound `COc1c2c(cc3c1-c1c(cc4c(c1OC)OCO4)[C@H](OC(=O)c1ccccc1)[C@@](C)(O)[C@@H](C)C3)OCO2` [SCHISANTHERIN D], the selectivity ratio in data set [1] was determined as 50.6.
For the compound `Cc1cn([C@H]2C[C@H](N=[N+]=[N-])[C@@H](CO)O2)c(=O)[nH]c1=O` [ZIDOVUDINE], the selectivity ratio in data set [1] turned out to be 250000.

These data come from ChEMBL document CHEMBL1158229, “Two new lignans, interiotherins A and B, as anti-HIV principles from Kadsura interior” (J Nat Prod, 1996).
